# Data taken from ChEMBL document CHEMBL5042510, “Structure-Guided Discovery of Aminoquinazolines as Brain-Penetrant and Selective LRRK2 Inhibitors” (J Med Chem, 2022).
# Tests used:
# [1] = Cardiotoxicity in telemetered Wistar Han rat assessed as elevation of diastolic blood pressure at 100 mg/kg, po; type: toxicity, organism-based; settings: in vivo
# [2] = In vivo inhibition of LRRK2 in CD rat assessed as reduction in phosphorylation at Ser935 residue in striatum at 1 mg/kg, po measured after 2 hrs by MSD assay; type: functional
# [3] = Total plasma clearance in Beagle dog at 1 mg/kg, iv by LC-MS/MS analysis; type: ADME, organism-based, Canis lupus familiaris
# [4] = Toxicity in rat assessed as elevation of AhR gene expression at 10 to 75 mg/kg, po bid administered for 4 days; type: organism-based; settings: in vivo, 96 h, dose 10-75 mg/kg, time 4 day
# [5] = Toxicity in rat assessed as fold increase in serum ALT levels at 150 mg/kg, po qd administered for 4 days; type: organism-based; settings: in vivo, 96 h, time 4 day
# mouse Bcrp [6] = assay: Efflux ratio of apparent permeability across basolateral to apical over apical to basolateral side in mouse Bcrp-transfected dog MDCK-II cells at 0.1 to 1 uM measured after 3 hrs by LC/MS/MS analysis; type: ADME, cell-based, Canis lupus familiaris; settings: dose 0.1-1 µM
# rat Mdr1a (P-gp) = assay: Efflux ratio of apparent permeability across basolateral to apical side over apical to basolateral side in rat Mdr1a-transfected pig LLC-PK1 cells at 0.1 to 1 uM measured after 3 hrs by LC/MS/MS analysis; type: ADME, cell-based, Sus scrofa; settings: dose 0.1-1 µM
# [7] = Dissociation constant, pKa of the compound; type: physicochemical
# [8] = Toxicity in rat assessed as reduction in weight gain at 150 mg/kg, po qd administered for 4 days; type: organism-based; settings: in vivo, 96 h, time 4 day
# [9] = molecular target: Mitogen-activated protein kinase 3 (Homo sapiens, UniProt P27361); assay: Inhibition of ERK1 (unknown origin)
# [10] = Unbound brain-to-plasma concentration ratio in rat at 10 mg/kg, po qd for 4 days by LC/MS/MS analysis; type: ADME, organism-based; settings: brain and plasma (unbound), time 4 day, read-out: K(p,uu,brain)
# [11] = Toxicity in rat assessed as positive tissue transcriptional score at 40 to 400 mg/kg, po qd administered for 4 days; type: organism-based; settings: in vivo, 96 h, dose 40-400 mg/kg, time 4 day
# [12] = Cardiotoxicity in telemetered Wistar Han rat assessed as elevation of systolic blood pressure at 100 mg/kg, po; type: toxicity, organism-based; settings: in vivo
# [13] = MRT in Wistar Han rat at 2 mg/kg, iv by LC-MS/MS analysis; type: ADME, organism-based; settings: in vivo
# [14] = Toxicity in rat assessed as clinical signs of toxicity at 40 to 400 mg/kg, po qd administered for 4 days; type: organism-based; settings: in vivo, 96 h, dose 40-400 mg/kg, time 4 day
# UGT1A6 = assay: Toxicity in rat assessed as fold increase in UGT1A6 transcriptional activity in liver at 75 mg/kg, po bid administered for 4 days relative to control; type: organism-based; settings: time 4 day, read-out: FC
# [15] = Inhibition of adenosine transporter (unknown origin); design: species or system Homo sapiens
# [16] = Toxicity in rat bone marrow at 40 to 400 mg/kg, po qd administered for 4 days by micronucleus assay; type: organism-based; settings: in vivo, 96 h, dose 40-400 mg/kg, time 4 day
# [17] = Total plasma clearance in Rhesus monkey at 3 mg/kg, iv by LC-MS/MS analysis; type: ADME, organism-based, Macaca mulatta
# [18] = Toxicity in rat assessed as fold increase in serum ALP levels at 150 mg/kg, po qd administered for 4 days; type: organism-based; settings: in vivo, 96 h, time 4 day
# [19] = Intrinsic clearance in Wistar Han rat at 2 mg/kg, iv by LC-MS/MS analysis; type: ADME, organism-based; settings: in vivo
# Substance-P receptor = Substance-P receptor (Homo sapiens, UniProt P25103); assay: Inhibition of tachykinin NK1 receptor (unknown origin)
# [20] = Intrinsic clearance in Rhesus monkey at 3 mg/kg, iv by LC-MS/MS analysis; type: ADME, organism-based, Macaca mulatta; settings: in vivo
# [21] = Cardiotoxicity in telemetered Wistar Han rat assessed as NOAEL at 30 mg/kg, po; type: toxicity, organism-based; settings: in vivo
# [22] = Unbound fraction in CD rat plasma at 1 to 100 mg/kg, po measured after 120 mins by LC/MS/MS analysis; type: ADME, organism-based; settings: in vivo, 2 h, dose 1-100 mg/kg
# [23] = MRT in Rhesus monkey at 3 mg/kg, iv by LC-MS/MS analysis; type: ADME, organism-based, Macaca mulatta; settings: in vivo
# [24] = Intrinsic clearance in Beagle dog at 1 mg/kg, iv by LC-MS/MS analysis; type: ADME, organism-based, Canis lupus familiaris; settings: in vivo
# mouse Bcrp [25] = assay: Apparent permeability in mouse Bcrp-transfected dog MDCK-II cells at 0.1 to 1 uM measured after 3 hrs by LC/MS/MS analysis; type: ADME, cell-based, Canis lupus familiaris; settings: dose 0.1-1 µM
# Salmonella typhimurium [26] = assay: Mutagenicity in Salmonella typhimurium TA100 at 30 to 5000 ug incubated for 48 hrs in presence of liver S9 fraction by AMES test; type: toxicity, organism-based, Salmonella enterica subsp. enterica serovar Typhimurium; settings: s9, 48 h, dose 30-5000 µg
# [27] = system: Leucine-rich repeat serine/threonine-protein kinase 2 (Homo sapiens), Q5S007 [G2019S]; assay: Inhibition of LRRK2 […] mutant expressed in human SH-SY5Y cells assessed as unbound concentration required for inhibition of phosphorylation of LRRK2 at Ser935 residue incubated for 90 mins by MSD assay; type: cell-based
# [28] = Toxicity in rat assessed as elevation of inflammatory response related gene expression at 10 to 75 mg/kg, po bid administered for 4 days; type: organism-based; settings: in vivo, 96 h, dose 10-75 mg/kg, time 4 day
# [29] = Unbound brain-to-plasma concentration ratio in CD rat 1 to 100 mg/kg, po measured after 120 mins by LC/MS/MS analysis; type: ADME, organism-based; settings: brain and plasma (unbound), dose 1-100 mg/kg, read-out: K(p,uu,brain)
# Salmonella typhimurium [30] = assay: Mutagenicity in Salmonella typhimurium TA1535 at 30 to 5000 ug incubated for 48 hrs in presence of liver S9 fraction by AMES test; type: toxicity, organism-based, Salmonella enterica subsp. enterica serovar Typhimurium; settings: s9, 48 h, dose 30-5000 µg
# Salmonella typhimurium [31] = assay: Mutagenicity in Salmonella typhimurium TA98 at 30 to 5000 ug incubated for 48 hrs in presence of liver S9 fraction by AMES test; type: toxicity, organism-based, Salmonella enterica subsp. enterica serovar Typhimurium; settings: s9, 48 h, dose 30-5000 µg
# [32] = Oral bioavailability in Rhesus monkey at 2 mg/kg by LC-MS/MS analysis; type: ADME, organism-based, Macaca mulatta; settings: in vivo
# [33] = Oral bioavailability in Beagle dog at 0.5 mg/kg by LC-MS/MS analysis; type: ADME, organism-based, Canis lupus familiaris; settings: in vivo
# [34] = Intrinsic clearance in rat hepatocytes at 0.3 uM incubated for 90 mins by LC/MS/MS analysis; type: ADME, cell-based, Hepatocyte; settings: read-out: CLH
# [35] = Toxicity in rat assessed as induction of liver injury at 40 to 400 mg/kg, po qd administered for 4 days; type: organism-based; settings: in vivo, 96 h, dose 40-400 mg/kg, time 4 day
# [36] = In vivo inhibition of LRRK2 in CD rat assessed as reduction in phosphorylation at Ser935 residue in striatum at 100 mg/kg, po measured after 2 hrs by MSD assay; type: functional
# [37] = Cardiotoxicity in guinea pig assessed as increase in QTc level at 157X unbound EM infused via iv consecutively for 20 mins; type: toxicity, organism-based, Cavia porcellus; settings: in vivo
# [38] = Unbound fraction in CD rat brain at 1 to 100 mg/kg, po measured after 120 mins by LC/MS/MS analysis; type: ADME, organism-based; settings: in vivo, 2 h, dose 1-100 mg/kg
# [39] = AUC in rat at 10 to 400 mg/kg, po qd for 4 days by LC/MS/MS analysis; type: ADME, organism-based; design: time 4 day; settings: in vivo, 96 h, dose 10-400 mg/kg
# Sequence of Mitogen-activated protein kinase 3 (P27361 whole entry): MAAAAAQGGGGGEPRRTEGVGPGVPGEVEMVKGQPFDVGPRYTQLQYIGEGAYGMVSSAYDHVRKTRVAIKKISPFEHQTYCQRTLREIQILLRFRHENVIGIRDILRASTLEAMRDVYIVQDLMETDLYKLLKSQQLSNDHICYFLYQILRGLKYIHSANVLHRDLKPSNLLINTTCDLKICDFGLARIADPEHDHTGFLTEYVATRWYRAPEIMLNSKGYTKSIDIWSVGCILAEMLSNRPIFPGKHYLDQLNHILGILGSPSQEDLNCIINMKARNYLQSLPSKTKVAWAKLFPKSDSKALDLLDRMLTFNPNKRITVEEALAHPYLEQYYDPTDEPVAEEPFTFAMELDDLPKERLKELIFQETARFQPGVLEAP
# Sequence of Leucine-rich repeat serine/threonine-protein kinase 2 (Homo sapiens), Q5S007 [G2019S] (Q5S007 whole entry G2019S): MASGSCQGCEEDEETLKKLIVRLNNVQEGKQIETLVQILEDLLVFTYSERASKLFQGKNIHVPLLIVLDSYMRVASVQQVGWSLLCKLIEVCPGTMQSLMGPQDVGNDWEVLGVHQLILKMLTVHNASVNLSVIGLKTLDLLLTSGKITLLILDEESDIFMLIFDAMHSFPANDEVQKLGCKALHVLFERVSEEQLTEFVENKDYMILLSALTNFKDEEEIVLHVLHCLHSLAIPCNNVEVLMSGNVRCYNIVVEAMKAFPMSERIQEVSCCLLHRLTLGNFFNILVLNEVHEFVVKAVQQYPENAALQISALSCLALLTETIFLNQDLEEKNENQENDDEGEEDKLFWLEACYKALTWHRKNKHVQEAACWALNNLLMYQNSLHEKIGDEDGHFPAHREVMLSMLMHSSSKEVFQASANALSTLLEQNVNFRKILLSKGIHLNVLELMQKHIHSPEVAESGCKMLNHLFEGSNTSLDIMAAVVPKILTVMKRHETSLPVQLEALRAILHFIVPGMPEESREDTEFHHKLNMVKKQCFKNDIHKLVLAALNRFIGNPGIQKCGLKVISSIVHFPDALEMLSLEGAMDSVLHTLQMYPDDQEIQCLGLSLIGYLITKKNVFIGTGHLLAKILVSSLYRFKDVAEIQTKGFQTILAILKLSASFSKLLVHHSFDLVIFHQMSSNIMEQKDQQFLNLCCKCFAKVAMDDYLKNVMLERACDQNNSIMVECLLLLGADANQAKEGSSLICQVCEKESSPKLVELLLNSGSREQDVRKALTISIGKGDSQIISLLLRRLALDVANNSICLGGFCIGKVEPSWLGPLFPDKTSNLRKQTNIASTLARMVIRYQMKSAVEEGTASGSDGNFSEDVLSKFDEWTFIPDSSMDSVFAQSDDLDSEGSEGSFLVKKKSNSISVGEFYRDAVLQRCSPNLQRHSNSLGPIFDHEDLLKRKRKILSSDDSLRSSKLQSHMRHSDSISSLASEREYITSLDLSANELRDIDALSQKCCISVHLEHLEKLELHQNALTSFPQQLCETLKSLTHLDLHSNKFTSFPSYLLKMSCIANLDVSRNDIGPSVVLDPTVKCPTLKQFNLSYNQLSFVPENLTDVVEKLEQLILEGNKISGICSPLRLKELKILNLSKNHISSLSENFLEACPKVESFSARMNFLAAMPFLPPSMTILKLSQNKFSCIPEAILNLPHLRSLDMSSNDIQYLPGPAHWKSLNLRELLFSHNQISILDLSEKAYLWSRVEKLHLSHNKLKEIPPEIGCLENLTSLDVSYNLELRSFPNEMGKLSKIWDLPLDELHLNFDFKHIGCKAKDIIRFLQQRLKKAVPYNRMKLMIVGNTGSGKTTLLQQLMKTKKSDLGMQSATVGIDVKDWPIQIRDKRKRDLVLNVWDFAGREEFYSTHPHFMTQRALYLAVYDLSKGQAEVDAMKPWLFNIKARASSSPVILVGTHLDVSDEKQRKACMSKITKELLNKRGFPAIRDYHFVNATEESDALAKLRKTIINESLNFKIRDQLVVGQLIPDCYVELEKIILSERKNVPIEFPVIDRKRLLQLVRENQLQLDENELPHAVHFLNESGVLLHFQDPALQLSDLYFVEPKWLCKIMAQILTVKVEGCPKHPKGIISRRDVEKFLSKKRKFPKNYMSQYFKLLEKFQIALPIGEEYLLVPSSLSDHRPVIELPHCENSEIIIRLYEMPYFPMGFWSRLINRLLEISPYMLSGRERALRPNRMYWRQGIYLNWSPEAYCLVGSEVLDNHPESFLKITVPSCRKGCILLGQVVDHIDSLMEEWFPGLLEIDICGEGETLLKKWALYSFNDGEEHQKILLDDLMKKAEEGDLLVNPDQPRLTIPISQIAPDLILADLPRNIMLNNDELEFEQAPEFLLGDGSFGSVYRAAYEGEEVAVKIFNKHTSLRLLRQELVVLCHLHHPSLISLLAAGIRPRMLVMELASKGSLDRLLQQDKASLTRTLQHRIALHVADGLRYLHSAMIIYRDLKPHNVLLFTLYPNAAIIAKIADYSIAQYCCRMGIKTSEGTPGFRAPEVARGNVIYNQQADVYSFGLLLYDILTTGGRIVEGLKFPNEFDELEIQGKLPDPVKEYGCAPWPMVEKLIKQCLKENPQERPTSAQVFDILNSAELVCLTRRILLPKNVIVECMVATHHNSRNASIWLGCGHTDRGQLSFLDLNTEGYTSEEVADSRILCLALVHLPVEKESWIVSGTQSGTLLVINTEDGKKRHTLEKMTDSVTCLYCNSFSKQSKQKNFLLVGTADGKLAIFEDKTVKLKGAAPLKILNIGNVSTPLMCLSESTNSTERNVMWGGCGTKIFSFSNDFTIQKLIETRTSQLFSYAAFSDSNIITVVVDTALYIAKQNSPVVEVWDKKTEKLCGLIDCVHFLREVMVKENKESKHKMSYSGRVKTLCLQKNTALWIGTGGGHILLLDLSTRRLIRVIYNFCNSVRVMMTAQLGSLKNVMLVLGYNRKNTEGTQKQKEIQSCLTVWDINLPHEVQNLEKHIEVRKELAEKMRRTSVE
# Sequence of Substance-P receptor (P25103 whole entry): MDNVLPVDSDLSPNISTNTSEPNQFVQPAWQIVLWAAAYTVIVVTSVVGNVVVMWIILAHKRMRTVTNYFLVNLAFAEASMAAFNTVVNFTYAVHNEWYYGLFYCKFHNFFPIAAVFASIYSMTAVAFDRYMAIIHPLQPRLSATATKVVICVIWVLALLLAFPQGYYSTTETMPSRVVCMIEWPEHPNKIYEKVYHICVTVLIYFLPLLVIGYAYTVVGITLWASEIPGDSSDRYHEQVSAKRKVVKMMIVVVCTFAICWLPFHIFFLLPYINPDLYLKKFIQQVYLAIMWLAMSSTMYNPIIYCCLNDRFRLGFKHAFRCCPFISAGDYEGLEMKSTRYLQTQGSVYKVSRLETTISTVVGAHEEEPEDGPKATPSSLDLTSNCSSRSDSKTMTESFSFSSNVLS
structure (smiles),measurement,setting,value
O[C@H]1COC[C@H]1N1CC[C@@H](c2cc3nc(Nc4cnn([C@@H]5CC5(F)F)c4Cl)ncc3cc2Cl)[C@H](F)C1,Activity,[1],Toxic
same,inhibition in vivo at 1 mg/kg,[2],7%
same,clearance,[3],9 mL/min/kg
same,Activity,[4],Non-Toxic
same,fold change (FC),[5],2
same,"efflux ratio at 3 h, up to 1 µM",mouse Bcrp [6],3.8
same,"efflux ratio at 3 h, up to 1 µM",rat Mdr1a (P-gp),3.7
same,pKa,[7],5.65
same,Activity,[8],Toxic
same,IC50,[9],1.8 µM
same,Kp uu at 96 h,[10],0.67
same,Activity,[11],Non-Toxic
same,Activity,[12],Toxic
same,MRT,[13],3.9 h
same,Activity,[14],Non-Toxic
same,fold induction at 96 h,UGT1A6,2.5
same,IC50,[15],9.6 µM
same,Activity,[16],Non-Toxic
same,clearance,[17],21 mL/min/kg
same,fold change (FC),[18],2
same,CL,[19],1278 mL/min/kg
same,IC50,Substance-P receptor,5.7 µM
same,CL,[20],1295 mL/min/kg
same,Activity,[21],Non-Toxic
same,Cp(f),[22],10.14 nM
same,MRT,[23],5.2 h
same,CL,[24],445 mL/min/kg
same,"Papp at 3 h, up to 1 µM",mouse Bcrp [25],28 ×10⁻⁶ cm/s
same,Activity,Salmonella typhimurium [26],Non-Toxic
same,fIC50,[27],0.57 nM
same,Activity,[28],Non-Toxic
same,Kp uu at 2 h,[29],0.36
same,Activity,Salmonella typhimurium [30],Non-Toxic
same,Activity,Salmonella typhimurium [31],Non-Toxic
same,bioavailability,[32],18%
same,bioavailability,[33],79%
same,CLint scaled at 0.3 µM,[34],248 mL/min/kg
same,Activity,[35],Non-Toxic
same,inhibition in vivo at 100 mg/kg,[36],97%
same,Activity,[37],2%
same,Cp(f),[38],3.7 nM
same,AUC,[39],99 µM·h
